{"source": "paper PMC10796807", "about": "(Computational and Structural Biotechnology Journal, 2023)", "key": {"mouse or rat TRPV2": {"tested_on": "mouse or rat TRPV2", "settings": "read-out: reported EC50 values; ref [40]; cited from earlier work"}, "rat TRPV2": {"tested_on": "rat TRPV2", "settings": "cells pretreated with 2.5 mM PBCD; ref [22]; cited from earlier work"}, "rat TRPV2 (rTRPV2-eGFP)": {"biological_target": "T1, rat TRPV2 (rTRPV2-eGFP) (Rattus norvegicus, UniProt Q9WUD2)", "T1 sequence (Q9WUD2 1-761)": "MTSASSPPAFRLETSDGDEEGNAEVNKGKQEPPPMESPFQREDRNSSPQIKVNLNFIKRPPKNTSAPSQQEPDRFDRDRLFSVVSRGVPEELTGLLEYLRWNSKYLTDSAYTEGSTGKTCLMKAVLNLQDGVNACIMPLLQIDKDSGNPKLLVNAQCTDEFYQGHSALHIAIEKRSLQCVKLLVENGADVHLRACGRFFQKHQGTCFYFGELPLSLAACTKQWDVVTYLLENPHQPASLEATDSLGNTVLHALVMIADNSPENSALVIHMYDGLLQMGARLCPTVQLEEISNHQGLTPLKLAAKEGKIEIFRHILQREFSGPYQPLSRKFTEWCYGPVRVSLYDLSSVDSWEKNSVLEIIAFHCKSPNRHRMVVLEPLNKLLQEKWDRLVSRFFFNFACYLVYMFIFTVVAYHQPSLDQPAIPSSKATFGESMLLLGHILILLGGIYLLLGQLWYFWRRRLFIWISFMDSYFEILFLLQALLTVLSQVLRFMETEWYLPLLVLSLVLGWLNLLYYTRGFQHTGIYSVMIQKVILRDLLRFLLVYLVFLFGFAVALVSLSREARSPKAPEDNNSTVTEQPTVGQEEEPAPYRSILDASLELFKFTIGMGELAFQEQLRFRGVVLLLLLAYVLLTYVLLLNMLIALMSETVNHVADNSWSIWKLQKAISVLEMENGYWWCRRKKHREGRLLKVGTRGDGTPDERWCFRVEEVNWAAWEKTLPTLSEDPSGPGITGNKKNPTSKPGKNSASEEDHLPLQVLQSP", "format": "biochemical", "settings": "for EC50: no inhibitor"}, "human TRPV2": {"tested_on": "human TRPV2", "settings": "ref [40]; cited from earlier work"}}, "note": "Like-named read-outs stand apart in the source and are kept apart here."}
{"compound": "C=C(C)[C@@H]1CCC(C)=C[C@H]1c1c(O)cc(CCCCC)cc1O", "note": "[CBD, cannabidiol]", "values": [{"measurement": "EC50", "setting": "mouse or rat TRPV2", "value": "0.01 to 1", "unit": "µM"}, {"measurement": "EC50", "setting": "rat TRPV2", "value": 3.7, "unit": "µM"}, {"measurement": "EC50", "setting": "rat TRPV2 (rTRPV2-eGFP); EC50 (Bayesian, 90% confidence interval in brackets), TRPV2-GFP vesicles", "value": 110, "unit": "µM"}, {"measurement": "activation", "setting": "human TRPV2", "value": "no activation of human TRPV2"}]}
{"compound": "O=C(O)c1ccc(S(=O)(=O)N2CCCCC2)cc1", "note": "[Compound 6, 4-(Piperidine-1-sulfonyl)-benzoic acid]", "values": [{"measurement": "Confidence that EC50 is lower than that of PBCD (Bayesian hypothesis test)", "setting": "rat TRPV2 (rTRPV2-eGFP)", "value": 84, "unit": "%"}]}
{"compound": "COc1cc(CNC(=O)CCCC/C=C/C(C)C)ccc1O", "note": "[capsaicin]", "values": [{"measurement": "Activation/modulation of TRPV2 (fluorescence signal)", "setting": "rat TRPV2 (rTRPV2-eGFP); negative controls, TRPV2-GFP vesicles", "value": "no measurable increase of fluorescence signal"}]}
{"compound": "lysophosphatidylcholine [LPC]", "values": [{"measurement": "EC50", "setting": "rat TRPV2 (rTRPV2-eGFP); read-out: EC50 (Bayesian, 90% confidence interval in brackets), TRPV2-GFP vesicles", "value": 36, "unit": "µM"}]}
